For this assay, the target named is T1, mouse HCN2 (Mus musculus, UniProt O88703).
T1 sequence (O88703 1-863): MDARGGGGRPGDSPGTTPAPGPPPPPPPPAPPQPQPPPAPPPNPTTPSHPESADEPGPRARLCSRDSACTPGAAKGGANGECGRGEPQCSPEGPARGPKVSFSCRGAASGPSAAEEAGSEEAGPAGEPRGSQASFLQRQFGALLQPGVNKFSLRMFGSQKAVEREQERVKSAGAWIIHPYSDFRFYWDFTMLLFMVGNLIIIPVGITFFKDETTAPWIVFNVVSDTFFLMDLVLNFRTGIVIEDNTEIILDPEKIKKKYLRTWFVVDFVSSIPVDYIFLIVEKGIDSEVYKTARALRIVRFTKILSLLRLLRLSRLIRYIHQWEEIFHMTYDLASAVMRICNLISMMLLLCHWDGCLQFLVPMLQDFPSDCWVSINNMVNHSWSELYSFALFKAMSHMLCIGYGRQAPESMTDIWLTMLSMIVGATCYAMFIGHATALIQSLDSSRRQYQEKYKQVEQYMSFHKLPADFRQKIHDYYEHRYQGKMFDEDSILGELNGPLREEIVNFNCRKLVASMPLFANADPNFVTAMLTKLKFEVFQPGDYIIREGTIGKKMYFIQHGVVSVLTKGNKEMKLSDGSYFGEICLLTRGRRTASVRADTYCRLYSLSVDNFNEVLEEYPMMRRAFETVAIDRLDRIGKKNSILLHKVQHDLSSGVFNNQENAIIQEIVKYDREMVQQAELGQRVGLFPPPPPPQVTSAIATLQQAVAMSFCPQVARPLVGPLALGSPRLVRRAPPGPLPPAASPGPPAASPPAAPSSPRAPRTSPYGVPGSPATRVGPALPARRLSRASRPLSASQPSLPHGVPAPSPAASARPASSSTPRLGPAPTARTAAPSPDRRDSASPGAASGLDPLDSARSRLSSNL
The assay can be described thus: patch clamp, excised inside-out patches from HEK cells. The class given is biochemical. The settings on record: open-channel pore blocker. On the technique in general: The patch-clamp technique gives a direct electrical read-out from membranes.

On to `CCN(c1ccccc1)c1cc(NC)[n+](C)c(C)n1` [ZD7288], for which the “% inhibition at 200 μM” value was “mean relative inhibition of zebrafish HCNL1 and mouse HCN2 in response to ZD7288”.

Values taken from article PMC7306766 (Proceedings of the National Academy of Sciences of the …, 2020).
